Data published in patent US8959984B2, “Proteome-wide quantification of small molecule binding to cellular target proteins” (priority 2007, dated 2015).
Where two headings read alike, the source gives them in different places.

What was measured:
[1] = target: EphB4 (Homo sapiens, UniProt P54760); test: binding to immobilized V16742 (IVA1/IVA2, HeLa lysate, MS)
[2] = target: BRD4 (Homo sapiens, UniProt O60885); test: as above
[3] = target: CK1e (Homo sapiens, UniProt P49674); test: as above
[4] = target: JAK1 (Homo sapiens, UniProt P23458); test: as above
[5] = target: JNK2 (Homo sapiens, UniProt P45984); test: as above
[6] = target: RIPK2 (Homo sapiens, UniProt O43353); test: as above
[7] = target: ERK2 (Homo sapiens, UniProt P28482); test: as above; settings: for Percent bound at 1.87 μM 16742 conc / Percent bound at 8.74 μM 16742 conc / Percent bound at 52 μM 16742 conc / Kd: Erk2
[8] = target: CK1d (Homo sapiens, UniProt P48730); test: as above
[9] = target: CK1a (Homo sapiens, UniProt P48729); test: as above
[10] = target: T1, ALK2 (ACVR1) (Homo sapiens, UniProt Q04771)
T1 sequence (Q04771 21-509): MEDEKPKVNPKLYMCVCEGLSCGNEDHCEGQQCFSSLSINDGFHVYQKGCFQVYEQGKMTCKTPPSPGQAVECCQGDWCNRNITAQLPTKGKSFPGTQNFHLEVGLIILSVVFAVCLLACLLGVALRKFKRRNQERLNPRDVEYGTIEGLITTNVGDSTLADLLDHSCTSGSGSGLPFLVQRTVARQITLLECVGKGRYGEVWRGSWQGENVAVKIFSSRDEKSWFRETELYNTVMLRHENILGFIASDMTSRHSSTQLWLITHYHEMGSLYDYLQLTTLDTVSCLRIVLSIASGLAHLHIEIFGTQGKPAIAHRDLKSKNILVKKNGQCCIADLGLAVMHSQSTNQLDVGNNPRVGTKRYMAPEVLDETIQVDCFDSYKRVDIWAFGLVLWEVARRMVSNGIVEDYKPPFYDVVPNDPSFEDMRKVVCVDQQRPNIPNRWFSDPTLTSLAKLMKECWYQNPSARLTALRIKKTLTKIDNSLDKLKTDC

[11] = target: CaMK2g (CAMK2G) (Homo sapiens, UniProt Q13555)
[12] = target: p38a (MAPK14, IPI00221141) (Homo sapiens, UniProt Q16539); test: gefitinib competition against AX14596 beads (HeLa lysate, SILAC MS); format: binding
[13] = target: T2, PHKg2 (Homo sapiens, UniProt P15735); test: binding to immobilized V16742 (IVA1/IVA2, HeLa lysate, MS)
T2 construct: endogenous in cells; host or cells: HeLa S3
T2 sequence (P15735 1-406): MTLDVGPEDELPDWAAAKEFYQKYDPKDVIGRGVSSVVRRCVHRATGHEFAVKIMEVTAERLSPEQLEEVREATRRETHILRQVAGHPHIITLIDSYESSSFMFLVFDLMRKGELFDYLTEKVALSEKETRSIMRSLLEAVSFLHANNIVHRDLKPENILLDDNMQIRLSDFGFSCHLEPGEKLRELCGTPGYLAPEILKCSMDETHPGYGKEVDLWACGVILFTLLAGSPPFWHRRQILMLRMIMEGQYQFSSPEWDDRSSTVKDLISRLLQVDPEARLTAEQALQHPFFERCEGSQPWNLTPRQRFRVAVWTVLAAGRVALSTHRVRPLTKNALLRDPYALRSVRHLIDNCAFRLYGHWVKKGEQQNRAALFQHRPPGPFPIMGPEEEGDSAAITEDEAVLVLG

[14] = target: T3, MST3 (STK24, IPI00872754) (Homo sapiens, UniProt Q9Y6E0); test: binding to VI16742 beads (HeLa lysate, SILAC MS)
T3 construct: endogenous in cells; host or cells: HeLa S3 cell lysate

[15] = immobilized V16742, read-out: Kd

Sequence of RIPK2 (O43353 whole entry): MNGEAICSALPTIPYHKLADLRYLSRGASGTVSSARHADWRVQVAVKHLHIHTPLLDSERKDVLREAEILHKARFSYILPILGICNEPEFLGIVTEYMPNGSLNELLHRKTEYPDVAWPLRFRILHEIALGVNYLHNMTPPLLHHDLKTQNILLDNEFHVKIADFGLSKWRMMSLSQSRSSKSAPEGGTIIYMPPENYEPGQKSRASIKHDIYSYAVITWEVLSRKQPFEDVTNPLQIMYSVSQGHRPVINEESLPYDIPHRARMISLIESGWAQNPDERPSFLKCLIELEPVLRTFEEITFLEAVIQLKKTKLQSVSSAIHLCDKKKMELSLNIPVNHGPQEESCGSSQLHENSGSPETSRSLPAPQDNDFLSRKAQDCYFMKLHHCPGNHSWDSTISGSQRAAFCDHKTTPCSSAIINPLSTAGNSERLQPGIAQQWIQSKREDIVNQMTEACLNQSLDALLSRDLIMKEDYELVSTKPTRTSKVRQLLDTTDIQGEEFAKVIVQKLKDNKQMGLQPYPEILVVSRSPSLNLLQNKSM
Sequence of CaMK2g (CAMK2G) (Q13555 whole entry): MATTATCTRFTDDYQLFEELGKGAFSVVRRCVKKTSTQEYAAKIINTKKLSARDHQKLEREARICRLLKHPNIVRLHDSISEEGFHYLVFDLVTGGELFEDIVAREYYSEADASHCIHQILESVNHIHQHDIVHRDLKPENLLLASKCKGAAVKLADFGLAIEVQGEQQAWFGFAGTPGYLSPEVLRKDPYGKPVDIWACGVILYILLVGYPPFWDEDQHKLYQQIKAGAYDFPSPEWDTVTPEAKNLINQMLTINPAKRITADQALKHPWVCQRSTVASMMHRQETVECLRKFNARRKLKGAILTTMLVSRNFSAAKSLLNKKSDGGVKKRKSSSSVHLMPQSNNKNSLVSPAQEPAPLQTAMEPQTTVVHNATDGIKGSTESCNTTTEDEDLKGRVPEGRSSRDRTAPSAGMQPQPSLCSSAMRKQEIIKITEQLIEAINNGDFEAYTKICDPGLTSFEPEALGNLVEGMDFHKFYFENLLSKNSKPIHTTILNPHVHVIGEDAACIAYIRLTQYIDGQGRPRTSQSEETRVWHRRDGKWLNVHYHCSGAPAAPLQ
Sequence of JNK2 (P45984 whole entry): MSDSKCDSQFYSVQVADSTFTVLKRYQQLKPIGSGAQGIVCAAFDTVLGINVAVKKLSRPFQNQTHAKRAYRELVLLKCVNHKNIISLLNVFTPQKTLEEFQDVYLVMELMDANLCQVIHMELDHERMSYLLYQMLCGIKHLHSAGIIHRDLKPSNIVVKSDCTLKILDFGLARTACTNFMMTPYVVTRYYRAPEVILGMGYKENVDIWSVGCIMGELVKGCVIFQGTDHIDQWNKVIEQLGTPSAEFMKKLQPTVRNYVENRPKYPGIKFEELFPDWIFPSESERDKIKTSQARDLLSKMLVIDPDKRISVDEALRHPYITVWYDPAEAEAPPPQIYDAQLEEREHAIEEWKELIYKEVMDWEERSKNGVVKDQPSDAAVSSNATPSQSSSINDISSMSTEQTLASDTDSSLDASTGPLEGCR
Sequence of JAK1 (P23458 whole entry): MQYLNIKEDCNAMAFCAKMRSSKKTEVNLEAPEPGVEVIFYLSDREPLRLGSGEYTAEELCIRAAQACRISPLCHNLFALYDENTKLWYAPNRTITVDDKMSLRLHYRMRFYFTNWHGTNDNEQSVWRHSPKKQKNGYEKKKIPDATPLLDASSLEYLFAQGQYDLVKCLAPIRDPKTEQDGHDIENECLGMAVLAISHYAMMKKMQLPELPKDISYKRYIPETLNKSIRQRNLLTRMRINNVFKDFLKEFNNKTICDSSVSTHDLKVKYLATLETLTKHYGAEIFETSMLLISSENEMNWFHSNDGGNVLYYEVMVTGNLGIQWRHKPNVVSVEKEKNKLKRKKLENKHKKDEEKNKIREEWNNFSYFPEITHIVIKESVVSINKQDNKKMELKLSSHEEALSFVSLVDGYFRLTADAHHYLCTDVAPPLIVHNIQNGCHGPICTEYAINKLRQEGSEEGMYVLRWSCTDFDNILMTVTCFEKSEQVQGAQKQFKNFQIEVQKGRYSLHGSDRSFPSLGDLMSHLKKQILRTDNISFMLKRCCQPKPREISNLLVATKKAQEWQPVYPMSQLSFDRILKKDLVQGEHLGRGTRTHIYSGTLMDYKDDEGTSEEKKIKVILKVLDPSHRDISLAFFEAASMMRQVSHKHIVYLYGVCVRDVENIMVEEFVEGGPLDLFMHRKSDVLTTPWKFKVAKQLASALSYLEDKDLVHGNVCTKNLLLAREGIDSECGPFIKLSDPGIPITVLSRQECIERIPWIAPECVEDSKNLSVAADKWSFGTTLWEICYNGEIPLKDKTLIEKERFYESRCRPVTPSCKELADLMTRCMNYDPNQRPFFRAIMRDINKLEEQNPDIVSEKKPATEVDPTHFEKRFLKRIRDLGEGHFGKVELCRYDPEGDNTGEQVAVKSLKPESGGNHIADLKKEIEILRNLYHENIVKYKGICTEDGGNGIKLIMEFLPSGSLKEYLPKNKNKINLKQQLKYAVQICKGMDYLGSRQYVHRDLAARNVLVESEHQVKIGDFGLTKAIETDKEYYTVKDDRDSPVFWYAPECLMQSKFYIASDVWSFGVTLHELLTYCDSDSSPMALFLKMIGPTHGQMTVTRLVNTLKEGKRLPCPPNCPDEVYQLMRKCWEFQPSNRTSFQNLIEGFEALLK
Sequence of p38a (MAPK14, IPI00221141) (Q16539 1-360 isoform Q16539-2): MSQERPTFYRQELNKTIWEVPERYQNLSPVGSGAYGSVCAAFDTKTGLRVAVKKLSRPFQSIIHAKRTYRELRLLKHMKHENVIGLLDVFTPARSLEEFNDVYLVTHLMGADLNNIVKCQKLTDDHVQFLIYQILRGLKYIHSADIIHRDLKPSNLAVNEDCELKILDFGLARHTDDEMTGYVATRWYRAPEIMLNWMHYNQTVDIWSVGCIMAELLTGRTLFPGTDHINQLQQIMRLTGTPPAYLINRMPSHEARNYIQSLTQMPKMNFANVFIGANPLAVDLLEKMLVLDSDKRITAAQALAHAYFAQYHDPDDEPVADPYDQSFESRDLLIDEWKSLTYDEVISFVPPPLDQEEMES
T3 sequence (Q9Y6E0 whole entry): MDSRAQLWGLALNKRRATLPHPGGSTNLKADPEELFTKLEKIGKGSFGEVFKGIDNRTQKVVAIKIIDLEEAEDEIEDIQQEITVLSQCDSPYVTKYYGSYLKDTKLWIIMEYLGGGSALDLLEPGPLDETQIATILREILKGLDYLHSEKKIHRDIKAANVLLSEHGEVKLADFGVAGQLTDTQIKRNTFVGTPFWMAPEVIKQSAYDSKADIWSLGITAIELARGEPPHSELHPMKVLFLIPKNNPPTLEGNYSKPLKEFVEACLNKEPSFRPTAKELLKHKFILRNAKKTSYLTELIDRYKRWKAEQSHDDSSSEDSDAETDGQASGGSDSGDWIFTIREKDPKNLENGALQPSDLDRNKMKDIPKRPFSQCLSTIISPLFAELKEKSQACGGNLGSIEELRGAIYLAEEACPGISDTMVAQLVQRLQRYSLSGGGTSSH
Sequence of CK1e (P49674 whole entry): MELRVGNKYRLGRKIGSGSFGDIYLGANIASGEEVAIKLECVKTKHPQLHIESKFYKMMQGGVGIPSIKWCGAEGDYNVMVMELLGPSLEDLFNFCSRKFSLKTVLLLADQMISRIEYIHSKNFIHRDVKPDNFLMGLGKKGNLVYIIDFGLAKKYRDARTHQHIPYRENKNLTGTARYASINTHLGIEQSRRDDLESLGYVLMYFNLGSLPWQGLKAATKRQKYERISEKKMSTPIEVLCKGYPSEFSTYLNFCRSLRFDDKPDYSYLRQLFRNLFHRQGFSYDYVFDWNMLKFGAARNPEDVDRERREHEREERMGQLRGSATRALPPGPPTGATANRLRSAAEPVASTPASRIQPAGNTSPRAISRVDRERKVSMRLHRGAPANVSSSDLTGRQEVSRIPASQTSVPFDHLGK
Sequence of ERK2 (P28482 whole entry): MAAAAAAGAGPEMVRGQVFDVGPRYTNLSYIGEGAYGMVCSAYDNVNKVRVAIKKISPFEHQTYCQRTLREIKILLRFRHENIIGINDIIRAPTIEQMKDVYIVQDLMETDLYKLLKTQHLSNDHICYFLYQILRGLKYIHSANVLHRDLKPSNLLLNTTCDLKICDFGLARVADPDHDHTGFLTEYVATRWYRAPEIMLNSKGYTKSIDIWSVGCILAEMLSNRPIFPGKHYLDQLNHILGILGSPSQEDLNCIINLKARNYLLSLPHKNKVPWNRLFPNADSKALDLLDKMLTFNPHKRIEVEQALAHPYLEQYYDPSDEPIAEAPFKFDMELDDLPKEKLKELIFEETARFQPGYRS
Sequence of CK1a (P48729 whole entry): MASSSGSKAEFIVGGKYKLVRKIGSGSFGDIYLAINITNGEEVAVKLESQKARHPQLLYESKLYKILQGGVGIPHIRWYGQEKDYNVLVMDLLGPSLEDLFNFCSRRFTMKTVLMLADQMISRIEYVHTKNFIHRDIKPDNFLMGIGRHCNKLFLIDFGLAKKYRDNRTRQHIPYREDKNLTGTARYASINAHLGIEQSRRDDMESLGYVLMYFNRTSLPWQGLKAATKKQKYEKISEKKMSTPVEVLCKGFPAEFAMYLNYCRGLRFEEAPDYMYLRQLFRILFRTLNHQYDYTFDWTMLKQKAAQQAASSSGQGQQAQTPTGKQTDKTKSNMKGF

Question: Which results are given for `CC(C)n1c(=O)ccc2cnc(Nc3ccc(OCCN)cc3)nc21` [compound 16742]?
Answer: Percent bound at 1.87 μM 16742 conc ([1]; EXPERIMENT 1): 3.95%; Percent bound at 8.74 μM 16742 conc ([1]; EXPERIMENT 1): 18.14%; Percent bound at 52 μM 16742 conc ([1]; EXPERIMENT 1): 61.05%; Kd ([1]; EXPERIMENT 1, read-out: Kd): 35.2 µM; Percent bound at 1.87 μM 16742 conc ([1]; EXPERIMENT 2): 2.71%; Percent bound at 8.74 μM 16742 conc ([1]; EXPERIMENT 2): 12.85%; Percent bound at 52 μM 16742 conc ([1]; EXPERIMENT 2): 50.80%; Kd ([1]; EXPERIMENT 2, read-out: Kd): 52.1 µM; Kd ([1]; read-out: Kd Avg): 43.6 µM; Percent bound at 1.87 μM 16742 conc ([2]; EXPERIMENT 1): 0.33%; Percent bound at 8.74 μM 16742 conc ([2]; EXPERIMENT 1): 6.55%; Percent bound at 52 μM 16742 conc ([2]; EXPERIMENT 1): 73.70%; Percent bound at 52 μM 16742 conc ([2]; EXPERIMENT 2): 61.49%; Kd ([2]; read-out: Kd Avg): 32 µM; Kd [3]: 13 µM; Percent bound at 1.87 μM 16742 conc ([3]; CK1e, EXPERIMENT 1): 6.91%; Percent bound at 8.74 μM 16742 conc ([3]; CK1e, EXPERIMENT 1): 34.02%; Percent bound at 52 μM 16742 conc ([3]; CK1e, EXPERIMENT 1): 79.64%; Percent bound at 1.87 μM 16742 conc ([3]; CK1e, EXPERIMENT 2): 7.41%; Percent bound at 8.74 μM 16742 conc ([3]; CK1e, EXPERIMENT 2): 37.16%; Percent bound at 52 μM 16742 conc ([3]; CK1e, EXPERIMENT 2): 88.21%; Kd ([3]; Kd, CK1e): 14.5 µM; Kd ([3]; Kd, CK1e, EXPERIMENT 1): 16.1 µM; Percent bound at 1.87 μM 16742 conc ([4]; EXPERIMENT 1): 16.10%; Percent bound at 8.74 μM 16742 conc ([4]; EXPERIMENT 1): 75.89%; Percent bound at 52 μM 16742 conc ([4]; EXPERIMENT 1): 90.34%; Kd ([4]; EXPERIMENT 1, read-out: Kd): 4.76 µM; Percent bound at 1.87 μM 16742 conc ([4]; EXPERIMENT 2): 8.59%; Percent bound at 8.74 μM 16742 conc ([4]; EXPERIMENT 2): 30.74%; Percent bound at 52 μM 16742 conc ([4]; EXPERIMENT 2): 78.69%; Kd ([4]; EXPERIMENT 2, read-out: Kd): 17.4 µM; Kd ([4]; read-out: Kd Avg): 11.1 µM; Percent bound at 1.87 μM 16742 conc ([5]; EXPERIMENT 1): 68.10%; Percent bound at 8.74 μM 16742 conc ([5]; EXPERIMENT 1): 89.45%; Percent bound at 52 μM 16742 conc ([5]; EXPERIMENT 1): 92.48%; Kd ([5]; EXPERIMENT 1, read-out: Kd): 0.91 µM; Percent bound at 1.87 μM 16742 conc ([5]; EXPERIMENT 2): 57.18%; Percent bound at 8.74 μM 16742 conc ([5]; EXPERIMENT 2): 75.70%; Percent bound at 52 μM 16742 conc ([5]; EXPERIMENT 2): 94.94%; Kd ([5]; EXPERIMENT 2, read-out: Kd): 1.69 µM; Kd ([5]; read-out: Kd Avg): 1.3 µM; Percent bound at 1.87 μM 16742 conc ([6]; EXPERIMENT 1): 3.74%; Percent bound at 8.74 μM 16742 conc ([6]; EXPERIMENT 1): 42.39%; Percent bound at 52 μM 16742 conc ([6]; EXPERIMENT 1): 91.89%; Kd ([6]; EXPERIMENT 1, read-out: Kd): 11.4 µM; Percent bound at 1.87 μM 16742 conc ([6]; EXPERIMENT 2): 5.20%; Percent bound at 8.74 μM 16742 conc ([6]; EXPERIMENT 2): 38.79%; Percent bound at 52 μM 16742 conc ([6]; EXPERIMENT 2): 90.30%; Kd ([6]; EXPERIMENT 2, read-out: Kd): 12.4 µM; Kd ([6]; read-out: Kd Avg): 11.9 µM; Percent bound at 1.87 μM 16742 conc ([7]; EXPERIMENT 1): 1.41%; Percent bound at 8.74 μM 16742 conc ([7]; EXPERIMENT 1): 5.40%; Percent bound at 52 μM 16742 conc ([7]; EXPERIMENT 1): 70.05%; Kd ([7]; EXPERIMENT 1, read-out: Kd): 35.1 µM; Percent bound at 1.87 μM 16742 conc ([7]; EXPERIMENT 2): 2.43%; Percent bound at 8.74 μM 16742 conc ([7]; EXPERIMENT 2): 5.90%; Percent bound at 52 μM 16742 conc ([7]; EXPERIMENT 2): 65.58%; Kd ([7]; EXPERIMENT 2, read-out: Kd): 38.5 µM; Kd ([7]; read-out: Kd Avg): 36.8 µM; Percent bound at 1.87 μM 16742 conc ([8]; EXPERIMENT 1): 16.07%; Percent bound at 8.74 μM 16742 conc ([8]; EXPERIMENT 1): 57.03%; Percent bound at 52 μM 16742 conc ([8]; EXPERIMENT 1): 87.27%; Kd ([8]; EXPERIMENT 1, read-out: Kd): 7.38 µM; Percent bound at 1.87 μM 16742 conc ([8]; EXPERIMENT 2): 19.73%; Percent bound at 8.74 μM 16742 conc ([8]; EXPERIMENT 2): 70.68%; Percent bound at 52 μM 16742 conc ([8]; EXPERIMENT 2): 87.40%; Kd ([8]; EXPERIMENT 2, read-out: Kd): 5.07 µM; Kd ([8]; read-out: Kd Avg): 6.23 µM; Percent bound at 1.87 μM 16742 conc ([9]; EXPERIMENT 1): 6.51%; Percent bound at 8.74 μM 16742 conc ([9]; EXPERIMENT 1): 31.78%; Percent bound at 52 μM 16742 conc ([9]; EXPERIMENT 1): 60.94%; Kd ([9]; EXPERIMENT 1, read-out: Kd): 20.8 µM; Percent bound at 1.87 μM 16742 conc ([9]; EXPERIMENT 2): 5.11%; Percent bound at 8.74 μM 16742 conc ([9]; EXPERIMENT 2): 34.46%; Percent bound at 52 μM 16742 conc ([9]; EXPERIMENT 2): 83.66%; Kd ([9]; EXPERIMENT 2, read-out: Kd): 16.8 µM; Kd ([9]; read-out: Kd Avg): 18.8 µM

Question: What does the source list for `COc1cc2ncnc(Nc3ccc(F)c(Cl)c3)c2cc1OCCCN1CCOCC1` [gefitinib]?
Answer: rAVERAGE (10 nM/0 nM Gef.) [10]: 0.76; rAVERAGE (100 nM/0 nM Gef.) [10]: 1.25; rAVERAGE (1000 nM/0 nM Gef.) [10]: 0.77; rAVERAGE (10000 nM/0 nM Gef.) [10]: 0.85; rAVERAGE (10 nM/0 nM Gef.) [11]: 0.95; rAVERAGE (100 nM/0 nM Gef.) [11]: 1.08; rAVERAGE (1000 nM/0 nM Gef.) [11]: 1.01; rAVERAGE (10000 nM/0 nM Gef.) [11]: 0.92; rAVERAGE (10 nM/0 nM Gef.) [12]: 0.88; rAVERAGE (100 nM/0 nM Gef.) [12]: 0.97; rAVERAGE (1000 nM/0 nM Gef.) [12]: 0.97; rAVERAGE (10000 nM/0 nM Gef.) [12]: 0.64

Question: Which results are given for `CC(C)n1c(=O)ccc2cnc(Nc3ccc(OCCN)cc3)nc21` [V16742]?
Answer: Percent bound at various 16742 conc ([13]; Experiment 1, 52 μM 16742): 59.42%; Kd ([13]; Experiment 2): 146 µM; Percent bound at various 16742 conc ([13]; Experiment 2, 1.87 μM 16742): 1.94%; Percent bound at various 16742 conc ([13]; Experiment 2, 8.74 μM 16742): 2.29%; Percent bound at various 16742 conc ([13]; Experiment 2, 52 μM 16742): 27.11%; Kd [2, 15]: 32 µM; Kd [4, 15]: 11.1 µM; affinity class of target for V16742 [5]: High affinity target; affinity class of target for V16742 [6]: Moderate affinity target; affinity class of target for V16742 ([7]; ERK2): Low affinity target; r (5 h/2.5 h INC. TIME) ([14]; 5 h vs 2.5 h incubation time): 1.41; rAVERAGE (CTRL/1 INC) ([14]; control beads vs first incubation): 0.06; Ki ([14]; immobilized VI16742): 89.8 µM; rAVERAGE (2 INC/1 INC) ([14]; second vs first incubation): 0.63
